According to patent US9879006B2, “Azaindole acetic acid derivatives and their use as prostaglandin D2 receptor modulators” (IDORSIA PHARMACEUTICALS LTD, priority 2014, dated 2018):

Assays:
hCRTH2 receptor [1] = target: T1, hCRTH2 receptor (Homo sapiens, UniProt Q9Y5Y4); experiment: hCRTH2 receptor membranes radioligand displacement assay; conditions: displacement of 3H-PGD2 (2.5 nM), HEK293-hCRTH2 membrane fragments, Binding-Buffer with 0.1% BSA
T1 construct: expressed in transfected cells; host or cells: HEK293 (recombinant HEK293-hCRTH2), membrane fragments
T1 sequence (Q9Y5Y4 1-395): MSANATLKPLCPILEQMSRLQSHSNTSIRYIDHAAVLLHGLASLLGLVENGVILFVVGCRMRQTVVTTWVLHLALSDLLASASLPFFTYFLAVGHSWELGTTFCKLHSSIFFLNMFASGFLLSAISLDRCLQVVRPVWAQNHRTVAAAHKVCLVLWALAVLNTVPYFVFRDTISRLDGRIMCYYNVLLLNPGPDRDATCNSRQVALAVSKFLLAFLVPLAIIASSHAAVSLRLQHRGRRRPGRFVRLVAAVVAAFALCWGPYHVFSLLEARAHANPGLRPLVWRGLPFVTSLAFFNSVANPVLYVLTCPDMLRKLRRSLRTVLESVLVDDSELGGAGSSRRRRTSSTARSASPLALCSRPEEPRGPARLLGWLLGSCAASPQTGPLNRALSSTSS
Experimental: Preparation of hCRTH2 Receptor Membranes and Radioligand Displacement Assay:
(§1) First, recombinant HEK293-hCRTH2 cells were detached from culture plates into 5 ml buffer A/plate (Buffer A: 5 mM Tris, 1 mM MgCl2-6H2O pH=7.4) using a rubber policeman. Cells were then transferred into centrifugation tubes and centrifuged for 5 min at 400 g. The cell pellet was resuspended in the same buffer and tubes were frozen at 80° C. Cells were thawed and membrane fragments were generated by homogenization using a polytron homogenizer (30 seconds). The membrane fragments were then centrifuged at 3000 g for 20 minutes and resuspended in buffer C (Buffer C: 75 mM Tris, 25 mM MgCl2, 250 mM Saccharose pH 7.4). Aliquots of membrane fragments were stored at −20° C.
(§2) Binding assay was performed in a final assay volume of 250 μl. First, 25 μl of test compound, previously diluted in Binding-Buffer (Binding-Buffer: 50 mM Tris-Base, 100 mM NaCl, 1 mM EDTA, 0.1% BSA (protease free), 0.01% NaN3, 10 mM MnCl2 pH 7.0) was placed into each well. After addition of 75 μl Binding-Buffer, 50 μl of the radioligand ^3H-PGD2 (at 2.5 nM (220.000 dpm/well) from ANAWA ART0662) was added to each well. Binding assay was started by addition of 100 μl CRTH2 membrane fragments, reaching a final concentration of 20 μg/well. For non-specific binding, PGD2 was added to the reaction mixture to […] final concentration. This assay mix was incubated for 90 minutes at room temperature and then filtered through a GF/C filter 96-well plate which was pre-soaked for 3 hours in 0.5% polyethyleneimine (PEI). The filter-wells were washed three times with ice cold Binding-Buffer. Then, 40 μl of Microscint-40 (Packard) was added to each well and the retained radioactivity quantified in a Topcount (Packard).

[2] = system: eosinophils (PGD2-induced shape change); experiment: Eosinophil shape change assay with human plasma; type: cell-based; conditions: human polymorphonuclear cells, 50% human plasma, activated with PGD2 100 nM, flow cytometry forward-scatter
Experimental: Eosinophil Shape Change Assay with Human Plasma
After obtaining informed consent, blood samples were drawn by venipuncture according to the protocol approved by the ethics committee of Basel, Switzerland. Polymorphonuclear leukocytes (containing eosinophils, basophils and neutrophils) were isolated using the Polymorphprep™ method (Axis-Shield). In brief, anticoagulated whole blood was layered onto a Polymorphprep gradient (density 1.113 g/ml) and centrifuged at 500 g for 30 min. The polymorphonuclear cell fraction was harvested and depleted for erythrocytes by hypotonic saline lysis.
The polymorphonuclear cells were resuspended in assay buffer (1×PBS with Ca^2+/Mg^2+ supplemented with 0.1% BSA, 10 mM HEPES, and 10 mM Glucose, pH 7.4) at 5×10^6 cells/ml and stained with anti-CD49d-APC ((APC=Allophycocyanin) for 1 hour at RT. Test compounds, at various concentrations, were preincubated 10 min in human plasma (anticoagulated with a thrombin inhibitor). Then, human plasma was added to the polymorphonuclear cells to 50% of final assay volume with polymorphonuclear cells at 4×10^6 cells/ml. After incubation for 10 minutes at 37° C., the polymorphonuclear cells were activated for 5 min at 37° C. by addition of PGD2 at 100 nM final concentration. Activation was stopped by addition of 0.5 ml paraformaldehyde (1%).
Immediately after fixation with paraformaldehyde, the samples were analyzed by FACSCanto flow cytometer (BD Biosciences) and target cells were identified by their forward-scatter (FSC) and side-scatter (SSC) characteristics. Eosinophils were identified by the anti-CD49d-APC signal and their characteristic side-scatter (SSC) profile. Shape change responses, indicative of eosinophil activation, were quantified as the percent of cells with an increased forward-scatter.

hCRTH2 receptor [3] = target: T1, hCRTH2 receptor; experiment: Radioligand displacement assay in presence of human serum albumin (HSA); conditions: displacement of 3H-PGD2, Binding-Buffer with 0.5% human serum albumin instead of 0.1% BSA
Experimental: as §1, §2
Radioligand Displacement Assay-Human Serum Albumin (HSA):
Radioligand displacement assay in presence of human serum albumin (HSA) was performed as described above, with following modifications. Binding-Buffer-HSA: Binding-buffer+0.5% Sigma Albumin from Human serum A1887 (instead of 0.1% BSA). A volume of 25 μl test compound, previously diluted in Binding-Buffer-HSA was placed into each well. After addition of 75 μl Binding-Buffer-HSA, 50 μl of ^3H-PGD2 (at 2.5 nM (220.000 dpm/well) from ANAWA ART0662) was added to each well. Remaining protocol was identical as described above.

Structure (SMILES): O=C(O)Cn1c2c(c3nc(F)ccc31)C[C@@H](Nc1ncc(Cl)cn1)CC2 [Example 8, (S)-2-(8-((5-chloropyrimidin-2-yl)amino)-2-fluoro-6,7,8,9-tetrahydro-5H-pyrido[3,2-b]indol-5-yl)acetic acid]
- IC50 (hCRTH2 receptor [1]): 19 nM
- IC50 [2]: 32 nM
- IC50 (hCRTH2 receptor [3]): 22 nM
